The results in this text go back to ChEMBL document CHEMBL3400010, “Cytotoxic and antioxidant constituents from the leaves of Psidium guajava” (Bioorg Med Chem Lett, 2015).

In brackets after ≈: the same amount, converted by molar mass.

Data set [1] in a line: Cytotoxicity against human SGC7901 cells by MTT assay. Particulars: SGC-7901. The data set is classed as functional, cell-based. Background: Formazan colour is commonly taken as a measure of viable cells.
The test system of another data set is A549. Nature of the data set: Cytotoxicity against human A549 cells by MTT assay. It counts as functional, cell-based.
The test system of the next data set is HeLa. Nature of the data set: Cytotoxicity against human HeLa cells by MTT assay. It counts as functional, cell-based.
Data set [2] can be described thus: Antioxidant activity assessed as DPPH radical scavenging activity after 30 mins by microplate reader based assay. It counts as physicochemical. (Loss of DPPH colour is used to gauge radical scavenging.)
A short description of data set [3]: Antioxidant activity assessed as ABTS radical scavenging activity after 15 mins. The data set is classed as physicochemical.
A short description of data set [4]: Antioxidant activity assessed as FRAP values at 12.5 ug/ml incubated at 37 degC for 5 mins by FeSO4.7H2O calibration curve based method. The data set is classed as physicochemical.
A short description of data set [5]: Antioxidant activity assessed as FRAP values at 25 ug/ml incubated at 37 degC for 5 mins by FeSO4.7H2O calibration curve based method. It counts as physicochemical.
A short description of data set [6]: Antioxidant activity assessed as FRAP values at 50 ug/ml incubated at 37 degC for 5 mins by FeSO4.7H2O calibration curve based method. It counts as physicochemical.
A short description of data set [7]: Antioxidant activity assessed as FRAP values at 100 ug/ml incubated at 37 degC for 5 mins by FeSO4.7H2O calibration curve based method. It counts as physicochemical.

A word on the IC50: it is the concentration that inhibits the measured activity by half.

For `C/C(=C/O[C@@H]1O[C@H](COC(=O)c2cc(O)c(O)c(O)c2)[C@@H](O)[C@H](O)[C@H]1O)C(=O)O`, the concentration for half-maximal inhibition (IC50) came to 3.73 µg/mL (≈ 8.96 µM) in data set [1]; 7.01 µg/mL (≈ 16.8 µM) in the data set on A549; 3.51 µg/mL (≈ 8.44 µM) in the data set with HeLa; 13.1 µg/mL (≈ 31.5 µM) in data set [2]; 5.93 µg/mL (≈ 14.2 µM) in data set [3]. The Activity in [4] amounted to 70.64 µmol/L; in data set [5], 152.02 µmol/L; in data set [6], 263.31 µmol/L; in data set [7], 413.94 µmol/L.

As for `O=C(OC[C@H]1O[C@@H](Oc2cc(-c3ccccc3)oc(=O)c2)[C@H](O)[C@@H](O)[C@@H]1O)c1cc(O)c(O)c(O)c1`, the IC50 in [1] came out at 4.28 µg/mL (≈ 8.51 µM); with A549, 7.29 µg/mL (≈ 14.5 µM); in the data set with HeLa, 3.25 µg/mL (≈ 6.46 µM); in [2], 13.07 µg/mL (≈ 26 µM); in data set [3], 5.47 µg/mL (≈ 10.9 µM). In addition, the Activity in [4] is 91.28 µmol/L; in data set [5] it was 143.76 µmol/L; in data set [6], 250.53 µmol/L; in [7], 386.38 µmol/L.

Regarding `O=c1c(O[C@@H]2O[C@@H](CO)[C@H](O)[C@H]2O)c(-c2ccc(O)c(O)c2)oc2cc(O)cc(O)c12` [AVICULARIN], the IC50 was over 10 µg/mL in [1]; over 10 µg/mL in the data set with A549; over 10 µg/mL with HeLa; 16.13 µg/mL (≈ 37.1 µM) in [2]; 6.9 µg/mL (≈ 15.9 µM) in data set [3]. Besides, the Activity in data set [4] stood at 123.88 µmol/L; in data set [5], 269 µmol/L; in data set [6], 291.63 µmol/L; in data set [7], 324.58 µmol/L.

Consider `O=c1c(O[C@@H]2O[C@H](CO)[C@H](O)[C@H](O)[C@H]2O)c(-c2ccc(O)c(O)c2)oc2cc(O)cc(O)c12` [HYPEROSIDE], for which the 50% inhibitory concentration (IC50) in data set [1] is over 10 µg/mL; in the data set with A549 it was over 10 µg/mL; in the data set on HeLa, over 10 µg/mL; in data set [2], 27.03 µg/mL (≈ 58.2 µM); in data set [3] it was 10.57 µg/mL (≈ 22.8 µM). The Activity in data set [4] came to 68.06 µmol/L; in data set [5], 155.89 µmol/L; in [6], 287.94 µmol/L; in data set [7], 329.68 µmol/L.

On to `Cc1c(O)c(C(=O)c2ccccc2)c(O)c(C)c1O[C@@H]1O[C@H](COC(=O)c2cc(O)c(O)c(O)c2)[C@@H](O)[C@H](O)[C@H]1O`, for which the half-inhibitory concentration (IC50) is over 10 µg/mL in data set [1]; over 10 µg/mL in the data set on A549; over 10 µg/mL with HeLa; 28.33 µg/mL (≈ 49.5 µM) in [2]; 8.3 µg/mL (≈ 14.5 µM) in [3]. Moreover, the Activity in [4] was found to be 48.3 µmol/L; in [5] it was 90.63 µmol/L; in data set [6] it was 185.03 µmol/L; in data set [7] it was 341.94 µmol/L.

With `Cc1c(O)c(C)c(O[C@@H]2O[C@H](CO)[C@@H](O)[C@H](O)[C@H]2O)c(C(=O)c2ccccc2)c1O`, the half-maximal inhibitory concentration (IC50) was over 10 µg/mL in data set [1]; over 10 µg/mL in the data set with A549; over 10 µg/mL in the data set with HeLa; over 100 µg/mL in data set [2]; 32.97 µg/mL (≈ 78.4 µM) in [3]. Further, the Activity in [4] came out at 11.54 µmol/L; in data set [5] it was 14 µmol/L; in [6], 23.73 µmol/L; in data set [7], 46.37 µmol/L.

With `O=C1O[C@H]([C@@H](O)CO)C(O)=C1O` [ASCORBIC ACID], the results for the half-inhibitory concentration (IC50) in [2] and in data set [3] were 16.3 µg/mL (≈ 92.5 µM) and 8.53 µg/mL (≈ 48.4 µM), respectively. The Activity in data set [4] turned out to be 149.97 µmol/L; in data set [5], 292.1 µmol/L; in data set [6] it was 396.76 µmol/L; in data set [7], 442.43 µmol/L.

Consider `O=c1c(O)c(-c2ccc(O)c(O)c2)oc2cc(O)cc(O)c12` [QUERCETIN], for which the concentration for half-maximal inhibition (IC50) in [1] was 7.88 µg/mL (≈ 26.1 µM); in the data set with A549, over 10 µg/mL; in the data set on HeLa, 8.26 µg/mL (≈ 27.3 µM); in data set [2], 11 µg/mL (≈ 36.4 µM); in data set [3], 4.4 µg/mL (≈ 14.6 µM). Besides, the Activity was determined as 333.26 µmol/L in [4], 359.18 µmol/L in [5], 379.4 µmol/L in [6] and 401.27 µmol/L in data set [7].

`COc1cccc2c1C(=O)c1c(O)c3c(c(O)c1C2=O)C[C@@](O)(C(=O)CO)C[C@@H]3O[C@H]1C[C@H](N)[C@H](O)[C@H](C)O1` [DOXORUBICIN]: the 50% inhibitory concentration (IC50) was 1.36 µg/mL (≈ 2.5 µM) in data set [1], 3.12 µg/mL (≈ 5.74 µM) in the data set with A549 and 2.68 µg/mL (≈ 4.94 µM) with HeLa.

Regarding `O=C(OC[C@H]1O[C@@H](Oc2cc(O)c(C(=O)c3ccccc3)c(O)c2)[C@H](O)[C@@H](O)[C@@H]1O)c1cc(O)c(O)c(O)c1`, the IC50 in [1] is over 10 µg/mL; in the data set on A549, over 10 µg/mL; with HeLa, over 10 µg/mL; in data set [2], 37.93 µg/mL (≈ 69.7 µM); in data set [3], 13.63 µg/mL (≈ 25 µM). Also, the Activity in data set [4] came to 18.46 µmol/L; in [5], 53.29 µmol/L; in data set [6] it was 131.03 µmol/L; in data set [7] it was 174.6 µmol/L.

On to `Cc1c(O)cc(O[C@@H]2O[C@H](CO)[C@@H](O)[C@H](O)[C@H]2O)c(C(=O)c2ccccc2)c1O`, for which the IC50 is over 10 µg/mL in [1]; over 10 µg/mL in the data set on A549; over 10 µg/mL with HeLa; over 100 µg/mL in data set [2]; 29.27 µg/mL (≈ 72 µM) in [3].

For the compound `O=c1c(O[C@@H]2OC[C@H](O)[C@H](O)[C@H]2O)c(-c2ccc(O)c(O)c2)oc2cc(O)cc(O)c12` [GUAJAVERIN], the IC50 in data set [1] was over 10 µg/mL; with A549 it was over 10 µg/mL; with HeLa, over 10 µg/mL; in [2], 13.43 µg/mL (≈ 30.9 µM); in data set [3] it was 6.7 µg/mL (≈ 15.4 µM). The Activity was 57.21 µmol/L in data set [4], 175.59 µmol/L in data set [5], 220.51 µmol/L in data set [6] and 346.45 µmol/L in data set [7].
